Results published in PubChem BioAssay AID1963848 (Molecular Pharmacology Branch, DTP, NCI, 2024).
Where “and” joins values, the source holds several entries; their conditions need not be identical. Identical values can stand only once.

System: 379773-124-R-J2-PDC spheroid viability
Assay: Anticancer human tumor 379773-124-R-J2-PDC patient-derived endometrial carcinoma cell line growth inhibition [POLQ]
Conditions: spheroids with HUVEC and MSC; for viability, T/C: stronger effect = lower value
Procedure: Multicellular complex tumor spheroid response to Polymerase (POL) inhibitors (novobiocin, ART-558, RP6685) in combination with a variety of drugs and investigational agents in selected tumor cell lines
The POL inhibitors (novobiocin, ART-558, and RP6685) were evaluated both individually and in combination with standard of care and investigational anticancer small molecules within a complex spheroid model of solid tumors. . Complex spheroids include a stromal component modeled by human endothelial cells (HUVEC) and fibroblasts modeled by human mesenchymal stem cells (MSCs). The concentration ranges selected for each drug and investigational agent were based upon clinically achievable concentrations if the clinical Cmax of the agent was known.
Compounds. The drugs and investigational agents: novobiocin (NSC847541), ART-558 (NSC835418), RP-6685 (NSC848927), peposertib (NSC802822), ceralasertib (NSC780249), elimusertib (NSC800525), camonsertib (NSC841442), AZD-1390 (NSC803789), olaparib (NSC753686), talazoparib (NSC767125), rucaparib (NSC756644), sotorasib (NSC818433), MRTX-1133 (NSC836407), SN-38 (NSC673596), topotecan (NSC609699), epotoside (NSC141540), doxorubicin (NSC123127), gemcitabine (NSC613327), 5-fluorouracil (NSC19893), paclitaxel (NSC125973), vemurafenib (NSC761431), MSA-2 (NSC828583), SN-011 (NSC837082), adavosertib (NSC754352), prexasertib (NSC758257), carboplatin (NSC241240) and oxaliplatin (NSC266046), were obtained from the National Cancer Institute (NCI) Developmental Therapeutics Program Chemical Repository (21). The FDA-approved anticancer drug set is available from the Developmental Therapeutics Program at https://dtp.cancer.gov/organization/dscb/obtaining/. […] The stock solutions were prepared in dimethyl sulfoxide (DMSO, Sigma-Aldrich, St. Louis, MO, cat. D2650), except for the platinum compounds which were prepared in saline (Quality Biological, Gaithersburg, MD, cat. 114-055-101), at 800-fold the tested concentration and stored at -70 degrees C prior to their use. All drugs and investigational agents were tested over a range starting from a high concentration at or near the clinical Cmax and decreasing in half-log increments. If the clinical Cmax for an agent had not been determined, the highest concentration tested was 10 microM, except for SN-38, which was tested at a high concentration of 1 microM.
Cell Culture. All cells were maintained in an incubator at 37 degrees C and 5% CO2 with 95% humidity. The PDC lines were cultured according to standard operating procedures established by the NCI PDMR (https://pdmr.cancer.gov). Table 3 of the manuscript, lists the cell lines along with the number of the three cell types plated to form the mct-spheroids and media for tumor cell growth. After thawing, all PDC lines, except 997537-175-T-J1-PDC and 415267-285-R-J2-PDC, were cultured in Matrigel-coated flasks prepared with a working solution of 1X Ham's F-12 nutrient mix, without supplementation (Thermo Fisher Scientific, cat. 11765054), 100 U/mL penicillin-streptomycin (Thermo Fisher Scientific, cat. 15140122), and 2.5% Matrigel (Corning Inc., Corning, NY, cat. 354248) for the first three passages. The two PDC lines 997537-175-T-J1-PDC and 415267-285-R-J2-PDC were cultured on uncoated flasks. The 857933-349-R-J2-PDC line was cultured in 6C/Colon 1B media containing advanced DMEM/F-12 (Thermo Fisher Scientific, cat. 12634028), 10 mM HEPES (Thermo Fisher Scientific, cat. 15630080), 1X GlutaMAX supplement (Thermo Fisher Scientific, cat. 35050061), 0.1 mg/mL primocin (InvivoGen, San Diego, CA, cat. ant-pm-2), 10% defined fetal bovine serum, heat inactivated (HyClone Laboratories Inc., Logan, UT, cat. SH30070.03HI), 50% L-WRN conditioned media (ATCC, cat. CRL-3276), 1.25 mM N-Acetyl-L-cysteine (Sigma-Aldrich, cat. A9165), 10 mM nicotinamide (Sigma-Aldrich, cat. N0636), 1X B-27 supplement (Thermo Fisher Scientific, cat. 17504044), 1X N-2 supplement (Thermo Fisher Scientific, cat. […]

[1] = curve of first compound, second compound 0.0316 µM
[2] = curve of first compound, second compound 0.1 µM
[3] = curve of first compound, second compound 0.316 µM
[4] = curve of first compound, second compound 1 µM
[5] = curve of first compound, second compound 3.16 µM
[6] = curve of first compound, second compound 10 µM
[7] = second compound 0.0316 µM, first compound 0.0316 µM
[8] = second compound 0.0316 µM, first compound 0.1 µM
[9] = second compound 0.0316 µM, first compound 0.316 µM
[10] = second compound 0.0316 µM, first compound 1 µM
[11] = second compound 0.0316 µM, first compound 3.16 µM
[12] = second compound 0.0316 µM, first compound 10 µM
[13] = second compound 0.1 µM, first compound 0.0316 µM
[14] = second compound 0.1 µM, first compound 0.1 µM
[15] = second compound 0.1 µM, first compound 0.316 µM
[16] = second compound 0.1 µM, first compound 1 µM
[17] = second compound 0.1 µM, first compound 3.16 µM
[18] = second compound 0.1 µM, first compound 10 µM
[19] = second compound 0.316 µM, first compound 0.0316 µM
[20] = second compound 0.316 µM, first compound 0.1 µM
[21] = second compound 0.316 µM, first compound 0.316 µM
[22] = second compound 0.316 µM, first compound 1 µM
[23] = second compound 0.316 µM, first compound 3.16 µM
[24] = second compound 0.316 µM, first compound 10 µM
[25] = second compound 1 µM, first compound 0.0316 µM
[26] = second compound 1 µM, first compound 0.1 µM
[27] = second compound 1 µM, first compound 0.316 µM
[28] = second compound 1 µM, first compound 1 µM
[29] = second compound 1 µM, first compound 3.16 µM
[30] = second compound 1 µM, first compound 10 µM
[31] = second compound 3.16 µM, first compound 0.0316 µM
[32] = second compound 3.16 µM, first compound 0.1 µM
[33] = second compound 3.16 µM, first compound 0.316 µM
[34] = second compound 3.16 µM, first compound 1 µM
[35] = second compound 3.16 µM, first compound 3.16 µM
[36] = second compound 3.16 µM, first compound 10 µM
[37] = second compound 10 µM, first compound 0.0316 µM
[38] = second compound 10 µM, first compound 0.1 µM
[39] = second compound 10 µM, first compound 0.316 µM
[40] = second compound 10 µM, first compound 1 µM
[41] = second compound 10 µM, first compound 3.16 µM
[42] = second compound 10 µM, first compound 10 µM
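Note: spheroids exposed to drugs for seven days before readout.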
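Throughout, for viability, T/C: percent viability relative to DMSO vehicle control taken as 100%.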

## CCc1cc2c(N3CCc4c(cc(Cn5ccnc5)cc4-c4cn(C)nc4C(F)(F)F)C3=O)cc(C)nc2c(OC)n1 + COC1C(OC(N)=O)C(O)C(Oc2ccc3c(O)c(NC(=O)c4ccc(O)c(CC=C(C)C)c4)c(=O)oc3c2C)OC1(C)C
[1]
  IC50: 1.22 µM
[2]
  IC50: 2.13 µM
[3]
  IC50: 3.32 µM
[4]
  IC50: 1.5 µM
[5]
  IC50: 2.07 µM
[6]
  IC50: 3.15 µM
[7]
  viability, T/C: 68.2%
[8]
  viability, T/C: 63.2%
[9]
  viability, T/C: 53.7%
[10]
  viability, T/C: 53%
[11]
  viability, T/C: 45.5%
[12]
  viability, T/C: 48.5%
[13]
  viability, T/C: 62.2%
[14]
  viability, T/C: 62.3%
[15]
  viability, T/C: 58.1%
[16]
  viability, T/C: 51.3%
[17]
  viability, T/C: 49.4%
[18]
  viability, T/C: 41.7%
[19]
  viability, T/C: 68.5%
[20]
  viability, T/C: 63.6%
[21]
  viability, T/C: 63.8%
[22]
  viability, T/C: 52.6%
[23]
  viability, T/C: 49.2%
[24]
  viability, T/C: 46.3%
[25]
  viability, T/C: 66.4%
[26]
  viability, T/C: 69.4%
[27]
  viability, T/C: 58.1%
[28]
  viability, T/C: 54.6%
[29]
  viability, T/C: 43.8%
[30]
  viability, T/C: 37.8%
[31]
  viability, T/C: 68.4%
[32]
  viability, T/C: 59.6%
[33]
  viability, T/C: 50.1%
[34]
  viability, T/C: 55.8%
[35]
  viability, T/C: 50%
[36]
  viability, T/C: 46.5%
[37]
  viability, T/C: 77%
[38]
  viability, T/C: 58.7%
[39]
  viability, T/C: 61.5%
[40]
  viability, T/C: 55.7%
[41]
  viability, T/C: 54.9%
[42]
  viability, T/C: 42.2%

## O=C(Nc1ccc(O)c(NS(=O)(=O)c2ccc(F)cc2)c1)c1ccc(-c2ccccc2)cc1
Compound 0.0316 µM
  viability, T/C: 98.6% and 86.4% and 88.8%
Compound 0.1 µM
  viability, T/C: 96% and 86.4% and 90.7%
Compound 0.316 µM
  viability, T/C: 97.9% and 93.9% and 76.7%
Compound 1 µM
  viability, T/C: 105% and 82.9% and 109%
Compound 3.16 µM
  viability, T/C: 91.6% and 97.1% and 84.3%
Compound 10 µM
  viability, T/C: 77.9% and 78.2% and 65.2%
Curve of compound
  IC50: > 10 µM

## CCCS(=O)(=O)Nc1ccc(F)c(C(=O)c2c[nH]c3ncc(-c4ccc(Cl)cc4)cc23)c1F + Nc1ccc(C#CCN(C(=O)Cc2ncc(C(F)(F)F)cc2C(F)(F)F)c2ccc(F)cc2)nn1
[1]
  IC50: > 10 µM
[2]
  IC50: > 10 µM
[3]
  IC50: > 10 µM
[4]
  IC50: > 10 µM
[5]
  IC50: > 10 µM
[6]
  IC50: > 10 µM
[7]
  viability, T/C: 85.6%
[8]
  viability, T/C: 97.3%
[9]
  viability, T/C: 83.9%
[10]
  viability, T/C: 92%
[11]
  viability, T/C: 80.9%
[12]
  viability, T/C: 55.1%
[13]
  viability, T/C: 95.3%
[14]
  viability, T/C: 88.7%
[15]
  viability, T/C: 87.2%
[16]
  viability, T/C: 85.7%
[17]
  viability, T/C: 81.4%
[18]
  viability, T/C: 55%
[19]
  viability, T/C: 94.6%
[20]
  viability, T/C: 95.8%
[21]
  viability, T/C: 81%
[22]
  viability, T/C: 94.6%
[23]
  viability, T/C: 93.6%
[24]
  viability, T/C: 70.8%
[25]
  viability, T/C: 90.6%
[26]
  viability, T/C: 86.6%
[27]
  viability, T/C: 95.1%
[28]
  viability, T/C: 85.7%
[29]
  viability, T/C: 77.9%
[30]
  viability, T/C: 59.2%
[31]
  viability, T/C: 96.5%
[32]
  viability, T/C: 89.7%
[33]
  viability, T/C: 92.1%
[34]
  viability, T/C: 96.4%
[35]
  viability, T/C: 75.1%
[36]
  viability, T/C: 59.8%
[37]
  viability, T/C: 100%
[38]
  viability, T/C: 87.3%
[39]
  viability, T/C: 79.8%
[40]
  viability, T/C: 83.6%
[41]
  viability, T/C: 81.5%
[42]
  viability, T/C: 54.3%

## Cn1ncnc1[C@H]1c2n[nH]c(=O)c3cc(F)cc(c23)N[C@@H]1c1ccc(F)cc1
Compound 0.000316 µM
  viability, T/C: 87.2% and 92.3% and 89.2%
Compound 0.001 µM
  viability, T/C: 84% and 90% and 91.3%
Compound 0.00316 µM
  viability, T/C: 95.8% and 99.7% and 71.6%
Compound 0.01 µM
  viability, T/C: 80.2% and 93.1% and 88.5%
Compound 0.0316 µM
  viability, T/C: 69.2% and 76.9% and 80.9%
Compound 0.1 µM
  viability, T/C: 51.7% and 51.5% and 63.7%
Curve of compound
  IC50: > 0.1 µM
